Laboratory results reported in the supplement of paper PMC8967900.

Tests used:
Test in all cases: selective drug sensitivity score (sDSS, relative to normal bone marrow) (sDSS (score)); higher = more potent and effective on the cell line relative to normal bone marrow cells
Conditions in all cases: 72 h
[1] = tested on: ALL-PO
[2] = tested on: CCRF-HSB2
[3] = tested on: COG-LL-317
[4] = tested on: COG-LL-319h
[5] = tested on: COG-LL-332h
[6] = tested on: HAL-01
[7] = tested on: JURKAT
[8] = tested on: KARPAS-45
[9] = tested on: LC4-1
[10] = tested on: MHH-CALL-3
[11] = tested on: MN-60
[12] = tested on: MOLT-4
[13] = tested on: NALL-1
[14] = tested on: P12-ICHIKAWA
[15] = tested on: P30-OHKUBO
[16] = tested on: PEER
[17] = tested on: SEM cells
[18] = tested on: SUP-B15
[19] = tested on: TANOUE
[20] = tested on: TMD5
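Further: ALL cell lines in 384-well plates, five doses spanning 10,000-fold, each plate scaled between vehicle and 100 µmol/L benzalkonium chloride controls, sDSS an adapted area-under-curve metric.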

SMILES | selective drug sensitivity score [1] | selective drug sensitivity score [2] | selective drug sensitivity score [3] | selective drug sensitivity score [4] | selective drug sensitivity score [5] | selective drug sensitivity score [6] | selective drug sensitivity score [7] | selective drug sensitivity score [8] | selective drug sensitivity score [9] | selective drug sensitivity score [10] | selective drug sensitivity score [11] | selective drug sensitivity score [12] | selective drug sensitivity score [13] | selective drug sensitivity score [14] | selective drug sensitivity score [15] | selective drug sensitivity score [16] | selective drug sensitivity score [17] | selective drug sensitivity score [18] | selective drug sensitivity score [19] | selective drug sensitivity score [20]
C[C@@H]1CCN(C(=O)CC#N)C[C@@H]1N(C)c1ncnc2[nH]ccc12 [Tofacitinib] (top concentration 5000 nM) | -7.86 | -3.56 | -7.86 | -7.86 | -7.86 | -7.86 | -7.86 | -7.86 | -7.86 | -7.86 | -7.86 | -7.86 | -7.86 | -7.86 | -6.66 | -4.66 | -7.86 | -7.86 | -7.86 | -7.86
COc1cc2c(NC3CCN(C(C)C)CC3)nc(C3CCCCC3)nc2cc1OCCCN1CCCC1 [UNC0638] (top concentration 10000 nM) | -1.74 | 0.16 | 0.06 | 8.26 | 0.66 | -4.64 | -2.64 | 2.36 | -2.84 | 0.86 | -2.64 | -3.74 | -5.14 | -2.84 | 0.86 | 1.26 | -2.94 | -1.04 | -5.14 | -4.84
CCCCNc1ncc(C(=O)NCc2ccc(-n3ccnc3)cc2)c(NC2CCC(O)CC2)n1 (stereo not given) [UNC2881] (top concentration 2500 nM) | 7.2 | 0 | 0.6 | 0 | 0.1 | 0.3 | 0 | 0.5 | 0 | 0 | 0 | 0.4 | 0.6 | 0 | 0 | 1.5 | 6.3 | 3.9 | 0 | 0.5
CC[C@@H]1CN(C(=O)NCC(F)(F)F)C[C@@H]1c1cnc2cnc3[nH]ccc3n12 [Upadacitinib] (top concentration 10000 nM) | -7.16 | -5.06 | -7.16 | -7.16 | -6.66 | -6.76 | -6.86 | -7.16 | -5.16 | -0.46 | -7.16 | -7.16 | -7.16 | -7.16 | -3.16 | -6.66 | -7.16 | -7.16 | -6.86 | -7.16
O=C(O)CC1CC(c2ccccc2)=NO1 (stereo not given) [VGX-1027] (top concentration 10000 nM) | -0.04 | -0.04 | -0.04 | -0.04 | -0.04 | -0.04 | -0.04 | -0.04 | -0.04 | -0.04 | -0.04 | -0.04 | -0.04 | -0.04 | -0.04 | -0.04 | -0.04 | -0.04 | -0.04 | -0.04
CCCCC(=O)OCC(=O)[C@]1(O)Cc2c(O)c3c(c(O)c2[C@@H](O[C@H]2C[C@H](NC(=O)C(F)(F)F)[C@H](O)[C@H](C)O2)C1)C(=O)c1c(OC)cccc1C3=O [Valrubicin] (top concentration 5000 nM) | -2.62 | 15.6 | 17 | 12.9 | 11.2 | 0.38 | 4.98 | -2.62 | 2.98 | 16 | -3.92 | 10.8 | -1.82 | 8.48 | 5.98 | -9.32 | 6.58 | 12.2 | -12.7 | 4.18
CCc1c(C(=O)C(N)=O)c2c(OCC(=O)O)cccc2n1Cc1ccccc1 [Varespladib] (top concentration 10000 nM) | -0.84 | 0.36 | -0.74 | -0.84 | -0.64 | -0.84 | -0.74 | -0.84 | -0.84 | -0.84 | -0.84 | -0.84 | -0.84 | -0.84 | -0.84 | -0.84 | -0.84 | -0.84 | -0.84 | -0.84
CC1(C)CCC(CN2CCN(c3ccc(C(=O)NS(=O)(=O)c4ccc(NCC5CCOCC5)c([N+](=O)[O-])c4)c(Oc4cnc5[nH]ccc5c4)c3)CC2)=C(c2ccc(Cl)cc2)C1 [Venetoclax] (top concentration 1000 nM) | 30.2 | -2.9 | 2.2 | 28.8 | -3.3 | 20.4 | -3.3 | 9.5 | 31.8 | 31.5 | -4.4 | 8.88e-16 | 20.5 | -2.4 | 21 | -2.9 | 21.1 | 34.5 | -4.4 | 20.8
CCCCOc1nc(N)c2c(n1)N(Cc1cccc(CN3CCCC3)c1)CC(=O)N2 [Vesatolimod] (top concentration 10000 nM) | -3.52 | -3.52 | -2.92 | 0.38 | -3.52 | -3.52 | -3.42 | -3.52 | -3.52 | -3.52 | -2.32 | -3.52 | -3.52 | -3.52 | -3.52 | -3.52 | -3.52 | -3.52 | -3.32 | -3.52
CCC1=C[C@@H]2CN(C1)Cc1c([nH]c3ccccc13)[C@@](C(=O)OC)(c1cc3c(cc1OC)N(C)[C@H]1[C@@](O)(C(=O)OC)[C@H](OC(C)=O)[C@]4(CC)C=CCN5CC[C@]31[C@@H]54)C2 [Vinorelbine] (top concentration 10000 nM) | 17.5 | 20.1 | 25.6 | 12.2 | 20.5 | 1.38 | 23.5 | 17.8 | 23.4 | 11 | 1.68 | 20.6 | 16.1 | 15.9 | 21.5 | 19.8 | 24.1 | 27.2 | -8.32 | 13.4
